PubChem BioAssay (NCI)
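48-hour exposure; five concentrations; linearly interpolated endpoints. The concentration for full growth arrest is given as TGI.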

Experiments:
Assay in all cases: NCI anticancer screen, dose series, 48 h
786-0 renal = test system: 786-0 renal
A498 renal = test system: A498 renal
A549 NSCLC = test system: A549 NSCLC
ACHN renal = test system: ACHN renal
BT-549 breast = test system: BT-549 breast
CAKI-1 renal = test system: CAKI-1 renal
COLO 205 colon = test system: COLO 205 colon
DU-145 prostate = test system: DU-145 prostate
EKVX NSCLC = test system: EKVX NSCLC
HCC-2998 colon = test system: HCC-2998 colon
HCT-116 colon = test system: HCT-116 colon
HCT-15 colon = test system: HCT-15 colon
HL-60(TB) leukemia = test system: HL-60(TB) leukemia
HOP-62 NSCLC = test system: HOP-62 NSCLC
HOP-92 NSCLC = test system: HOP-92 NSCLC
HS 578T breast = test system: HS 578T breast
HT29 colon = test system: HT29 colon
IGROV1 ovarian = test system: IGROV1 ovarian
K-562 leukemia = test system: K-562 leukemia
KM12 colon = test system: KM12 colon
LOX IMVI melanoma = test system: LOX IMVI melanoma
M14 melanoma = test system: M14 melanoma
MALME-3M melanoma = test system: MALME-3M melanoma
MCF7 breast = test system: MCF7 breast
MDA-MB-231 breast = test system: MDA-MB-231 breast
MDA-MB-435 = test system: MDA-MB-435
MDA-N = test system: MDA-N
MOLT-4 leukemia = test system: MOLT-4 leukemia
NCI-H226 lung = test system: NCI-H226 lung
NCI-H23 lung = test system: NCI-H23 lung
NCI-H522 lung = test system: NCI-H522 lung
NCI/ADR-RES ovarian = test system: NCI/ADR-RES ovarian
OVCAR-3 ovarian = test system: OVCAR-3 ovarian
OVCAR-4 ovarian = test system: OVCAR-4 ovarian
OVCAR-5 ovarian = test system: OVCAR-5 ovarian
OVCAR-8 ovarian = test system: OVCAR-8 ovarian
PC-3 prostate = test system: PC-3 prostate
RPMI-8226 leukemia = test system: RPMI-8226 leukemia
RXF 393 renal = test system: RXF 393 renal
SF-268 CNS = test system: SF-268 CNS
SF-295 CNS = test system: SF-295 CNS
SK-MEL-2 melanoma = test system: SK-MEL-2 melanoma
SK-MEL-28 melanoma = test system: SK-MEL-28 melanoma
SK-MEL-5 melanoma = test system: SK-MEL-5 melanoma
SK-OV-3 ovarian = test system: SK-OV-3 ovarian
SN12C renal = test system: SN12C renal
SNB-19 CNS = test system: SNB-19 CNS
SR leukemia = test system: SR leukemia
SW-620 colon = test system: SW-620 colon
T-47D breast = test system: T-47D breast
TK-10 renal = test system: TK-10 renal
U251 CNS = test system: U251 CNS
UACC-257 melanoma = test system: UACC-257 melanoma
UACC-62 melanoma = test system: UACC-62 melanoma
UO-31 renal = test system: UO-31 renal

CCC1c2[nH]c3ccccc3c2C[C@H]2C(=O)NC(Cc3ccccc3)C(=O)N12 (stereo not given in full)
TGI (786-0 renal): > 100 µM | TGI (A498 renal): > 100 µM | TGI (A549 NSCLC): > 100 µM | TGI (ACHN renal): > 100 µM | TGI (BT-549 breast): 62.4 µM | TGI (CAKI-1 renal): 98.8 µM | TGI (COLO 205 colon): 39 µM | TGI (DU-145 prostate): > 100 µM | TGI (EKVX NSCLC): 95 µM | TGI (HCC-2998 colon): 62.1 µM | TGI (HCT-116 colon): 57.1 µM | TGI (HCT-15 colon): > 100 µM | TGI (HL-60(TB) leukemia): 47.8 µM | TGI (HOP-62 NSCLC): > 100 µM | TGI (HOP-92 NSCLC): 72.8 µM | TGI (HS 578T breast): 47.9 µM | TGI (HT29 colon): 52.6 µM | TGI (IGROV1 ovarian): 74.7 µM | TGI (K-562 leukemia): > 100 µM | TGI (KM12 colon): 66 µM | TGI (LOX IMVI melanoma): 45.8 µM | TGI (M14 melanoma): 86.1 µM | TGI (MALME-3M melanoma): 43.1 µM | TGI (MCF7 breast): > 100 µM | TGI (MDA-MB-231 breast): 46.2 µM | TGI (MDA-MB-435): 43.8 µM | TGI (MDA-N): 67.5 µM | TGI (MOLT-4 leukemia): 56.9 µM | TGI (NCI-H226 lung): 74.9 µM | TGI (NCI-H23 lung): > 100 µM | TGI (NCI-H522 lung): 46.6 µM | TGI (NCI/ADR-RES ovarian): 95.3 µM | TGI (OVCAR-3 ovarian): 94.2 µM | TGI (OVCAR-4 ovarian): > 100 µM | TGI (OVCAR-5 ovarian): 65.7 µM | TGI (OVCAR-8 ovarian): > 100 µM | TGI (PC-3 prostate): 58.2 µM | TGI (RPMI-8226 leukemia): 51.3 µM | TGI (RXF 393 renal): 53.6 µM | TGI (SF-268 CNS): 66.3 µM | TGI (SF-295 CNS): 57.8 µM | TGI (SK-MEL-2 melanoma): 41.4 µM | TGI (SK-MEL-28 melanoma): > 100 µM | TGI (SK-MEL-5 melanoma): 35.5 µM | TGI (SK-OV-3 ovarian): > 100 µM | TGI (SN12C renal): 79.9 µM | TGI (SNB-19 CNS): > 100 µM | TGI (SR leukemia): 53.8 µM | TGI (SW-620 colon): > 100 µM | TGI (T-47D breast): 73.1 µM | TGI (TK-10 renal): > 100 µM | TGI (U251 CNS): 56.3 µM | TGI (UACC-257 melanoma): 49.6 µM | TGI (UACC-62 melanoma): 38.8 µM | TGI (UO-31 renal): > 100 µM
